Patent US5834500A, “Sulfur-containing heterocyclic bradykinin antagonists, process for their preparation, and their use” (Hoechst Aktiengesellschaft, priority 1996, dated 1998)

Key:
bradykinin B2 receptor = molecular target: T1, bradykinin B2 receptor (Cavia porcellus, UniProt O70526); assay: binding to the bradykinin B2 receptor of guinea pig ileum (3H-bradykinin competition); settings: guinea pig ileum membranes, 3H-bradykinin 0.25 to 0.3 nmol/l; read-out: antagonistic effect expressed as IC50-value on the guinea pig B2 receptor
T1 construct: from tissue; host or cells: guinea pig ileum membranes
T1 sequence (O70526 1-372): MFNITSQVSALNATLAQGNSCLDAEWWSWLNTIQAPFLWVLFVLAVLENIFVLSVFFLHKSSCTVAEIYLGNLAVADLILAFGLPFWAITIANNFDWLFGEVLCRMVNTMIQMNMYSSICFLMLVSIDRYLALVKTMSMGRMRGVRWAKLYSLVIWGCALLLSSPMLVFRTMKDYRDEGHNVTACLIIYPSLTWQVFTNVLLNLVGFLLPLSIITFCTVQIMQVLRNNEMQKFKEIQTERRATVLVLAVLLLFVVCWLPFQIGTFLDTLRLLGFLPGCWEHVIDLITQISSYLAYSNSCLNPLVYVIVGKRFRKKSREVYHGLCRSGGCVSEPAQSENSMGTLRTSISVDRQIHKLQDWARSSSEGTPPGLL
Procedure: The method of measuring binding to the bradykinin B2 receptor of guinea pig ileum is described below (R. B. Innis et al., Proc. NatI. Acad. Sci. USA; 17 (1981) 2630): […] Ligand: ^3 H-BRADYKININ (from NEN Du Pont) 2. Buffer mixtures: a) TES buffer: 25 mM TES (SIGMA, Cat. No.: T-4152) […] Cat. No.: P-9375) b) Incubation buffer: 25 mM TES (SIGMA; Cat. No.: T-4152) […] Cat. No.: P-9375) […] Cat. No.: A-7906) 140 μg/ml bacitracin (SIGMA; Cat. No.: B-0125) […] Cat. No.: D-0632) […] Both buffers are adjusted to pH 6.8 with 5 molar NaOH. 3. Membrane preparation: Guinea pig ilea are roughly freed of intestinal contents by carefully smoothing them out and are cleansed in 0.9% NaCl solution. The approx. 2 cm-long ilea pieces are transferred into ice-cold TES buffer (approx. 1 g/10 ml) and homogenized with an Ultraturrax for approx. 30 sec. in an ice bath. The homogenate is then filtered through 3 layers of gauze and the filtrate is centrifuged at 50,000 g for 10 minutes. The supernatant is discarded and the pellet is rehomogenized in the same volume of TES buffer and centrifuged once again at 50,000 g for 10 minutes. The pellet is rehomogenized in incubation buffer (approx. 1 g/5 ml) and frozen down at -70° C., in 2 ml aliquots, in cryotubes. The protein concentration of the finished membrane suspension is determined by the LOWRY method and should be approx. 15 μg/100 μl. 4. Binding test: All the incubations are carried out, at room temperature for 60 minutes, in a 200 μl volume on microtiter plates (96×300 μl). All the mixtures are in incubation buffer. For this, 50 μl of the radioligand, 50 μl of the preparation to be tested and 100 μl of the membrane suspension are pipetted consecutively into the wells of the microtiter plate. b) Competition experiments (IC50): A fixed quantity of the radioactive ligand (from 0.25 to 0.3 nmol/l ^3 H-bradykinin) and different concentrations of the unlabeled agonists or antagonists are employed for this purpose. 50 μl of the preparations or the standards to be tested, are added, in concentrations of from 10^-5 to 10^-10 mol/l, to in each case 50 μl of the ^3 H-bradykinin solution and the reaction is started by adding 100 μl of membrane suspension. […] As a rule, the preparations which are to be tested for competition are dissolved, at a concentration of 1 mmol/l, in dimethyl sulfoxide (DMSO) and subsequently subjected to further dilution with DMSO. This solution is then diluted 1:25 with incubation buffer. […] The filters, which are still moist, are punched out into mini scintillation vials, which are filled with 3 ml of scintillator. After having been left to soak for approx. 12 hours, the samples are shaken up briefly and measured in a beta counter. c) Screening: […] 4. Evaluation: The evaluation is effected by means of the LIGAND program package (McPherrson, Minson & Rodbard, Marketing: Elsevier-BIOSOFT), which performs the necessary calculations for determining IC50 and Ki values. This program also performs graphic depictions of the saturation and displacement curves and also SCATCHARD plots, HILL plots or HOFSTEE plots.

[1] = tested on: isolated guinea pig pulmonary artery; assay: bradykinin-induced contraction of isolated guinea pig pulmonary artery; settings: Cavia porcellus, 10 min; isolated vessel strip, contraction by 2×10^-7 mol/l bradykinin, 10 minutes exposure; read-out: antagonistic effect expressed as IC50-value on the guinea pig pulmonary artery
Procedure: For testing the novel compounds on the isolated pulmonary artery, guinea pigs (Dunkin Hartley) having a weight of 400-450 g are killed by a blow to the neck.
The thorax is opened and the pulmonary artery is carefully dissected out. The surrounding tissue is carefully removed and the pulmonary artery is cut open spirally at an angle of 45°.
The blood vessel strip, which is 2.5 cm long and 3-4 mm wide, is fastened in a 10 ml-capacity organ bath which is filled with Ringer solution. […]
95% O2 and 5% CO2 is bubbled through the solution, which is warmed to 37° C. The pH is 7.4 and the initial load on the vessel strip is 1.0 g.
The isotonic contraction changes are detected with a lever attachment and a high frequency modem (distance measuring device) from Hugo Sachs and registered on a potentiometric recorder (BEC, Goerz Metrawatt SE 460).
The experiment is started after 1 hour of equilibration. Once the maximum sensitivity of the vessel strips to 2×10^-7 mol/l bradykinin has been reached--bradykinin causes the vessel strips to contract--the test compounds, at doses of 5×10^-8 -1×10^-5 mol/l, are allowed to exert their effect for 10 minutes in each case and, after bradykinin has been added once again, the decrease in the effect of bradykinin is compared with the control.

Structure (SMILES) | IC50 (bradykinin B2 receptor) | IC50 [1]
Cc1nc2c(OCc3c(Cl)ccc(N(C)C(=O)CNC(=O)/C=C/c4ccc(C(F)(F)F)cc4)c3Cl)cccc2s1 [Example 3] | < 0.1 µM | < 1 µM
C=C/C=C/C(=O)NCC(=O)N(C)c1ccc(Cl)c(COc2cccc3sc(C)nc23)c1Cl [Example 6] | < 0.1 µM | < 1 µM
COc1cccc(/C=C/C(=O)NCC(=O)N(C)c2ccc(Cl)c(COc3cccc4sc(C)nc34)c2Cl)c1 [Example 11] | < 0.1 µM | < 1 µM
Cc1nc2c(OCc3c(Cl)ccc(N(C)C(=O)CNC(=O)/C=C/c4ccco4)c3Cl)cccc2s1 [Example 12] | < 0.1 µM | < 1 µM
Cc1ccc(/C=C/C(=O)NCC(=O)N(C)c2ccc(Cl)c(COc3cccc4sc(C)nc34)c2Cl)cc1 [Example 23] | < 0.1 µM | < 1 µM
Cc1nc2c(OCc3c(Cl)ccc(N(C)C(=O)CNC(=O)COc4ccc(OC(F)(F)F)cc4)c3Cl)cccc2s1 [Example 37] | < 0.1 µM | < 1 µM
